Here are results for 2 compounds from paper PMC6237300, “Influenza B viruses circulated during last 5 years in Mongolia” (PLoS ONE, 2018).

Assay [1] deals with NA of B/Ulaanbaatar/1113/2014 (I114T) (Influenza B virus, UniProt U5XBU0, I114T). Format: biochemical.
Assay [2] deals with NA of B/Darkhan/1484/2014 (H101N, E105K) (Influenza B virus, UniProt U5XBU0, E105K/H101N). Format: biochemical.
In assay [3] the target is NA of B/Khentii/1137/2014 (G140R) (Influenza B virus, UniProt U5XBU0, G140R). Type of assay: biochemical.
The target in assay [4] is NA of B/Ulaanbaatar/1495/2014 (E105K) (Influenza B virus, UniProt U5XBU0, E105K). Type of assay: biochemical.
The target in assay [5] is NA of B/Ulaanbaatar/1708/2014 (G104R) (Influenza B virus, UniProt U5XBU0, G104R). Type of assay: biochemical.
For assay [6], the system named is neuraminidase of the influenza B virus with H273Y mutation. Conditions: cited from earlier work.

Turning to `[H]/N=C(\N)N[C@H]1C=C(C(=O)O)O[C@@H]([C@H](OC)[C@H](O)CO)[C@@H]1NC(C)=O` [Laninamivir, laninamivir], the susceptibility category result in assay [1] is given as “sensitive”; in assay [2] it was “reduced susceptibility”; in assay [3] it was “sensitive”; in assay [4], “reduced susceptibility”.
For `CCC(CC)[C@H](NC(C)=O)[C@@H]1[C@H](O)[C@@H](C(=O)O)C[C@H]1N=C(N)N` [Peramivir, peramivir], the Fold increase in assay [5] is greater than 100000; in assay [1], 10; in assay [2], 2500; in assay [3], 10; in assay [4], 5000. In addition, the concentration for half-maximal inhibition (IC50) in assay [5] is 288000 nM; in assay [1], 11.8 nM; in assay [2], 1530 nM; in assay [3], 7.18 nM; in assay [4], 3270 nM. Moreover, the “resistance of H273Y mutant” value in assay [6] was “resistant”. Also, the susceptibility category entry is recorded as “reduced susceptibility” in assay [1], “highly reduced susceptibility” in assay [2], “reduced susceptibility” in assay [3] and “highly reduced susceptibility” in assay [4].
